Test [1] has as its system influenza A(H3N2) viruses isolated in the 2018–19 season in Japan. As to the kind of experiment: microbe, parasite or virus in culture. The format is cell-based. The conditions noted are these: n = 83, read-out: Median IC50 + SD.
The target in test [2] is neuraminidase (NA) of A(H3N2) of 2018–19 (Influenza A virus (H3N2), UniProt A0A193ACB1). The format is biochemical. The following applies: n = 170; read-out: Median IC50 + SD.

Consider two molecules from article PMC6810216, “Human-to-Human Transmission of Influenza A(H3N2) Virus with Reduced Susceptibility to Baloxavir, Japan, February 2019” (Emerging Infectious Diseases, 2019).

For `O=C1c2c(O)c(=O)ccn2N([C@@H]2c3ccccc3SCc3c2ccc(F)c3F)[C@@H]2COCCN12` [Baloxavir, baloxavir acid], the 50% inhibitory concentration (IC50) in test [1] came to […]. For the molecule `CCC(CC)[C@H](NC(C)=O)[C@@H]1[C@H](O)[C@@H](C(=O)O)C[C@H]1N=C(N)N` [Peramivir, peramivir], the half-inhibitory concentration (IC50) in test [2] was 0.13 nM.

In general, IC50 refers to the concentration at which inhibition is half-maximal.
